Test results published in patent US20220315598A1, “Oxygen-containing Heterocyclic Compound, Preparation Method Therefor and Use Thereof” (SHANGHAI YINGLI PHARMACEUTICAL CO., LTD, priority 2019, published 2022).

Key:
CYP2D6 = CYP2D6 (Homo sapiens, UniProt P10635); experiment: Inhibition of metabolic enzymes in vitro, human liver microsomes, CYP2D6
Experimental: (§1) Test purpose: In this test, human liver microsomes and CYP enzyme-specific substrates were used to test the effects of different concentrations of compounds to be tested on metabolic rates of enzyme-specific substrates, so as to determine inhibitory effects of these compounds on CYP enzymes in human liver microsomes.
(§2) 1. preparing […] potassium phosphate buffer (pH 7.4);
(§3) 2. preparing stock solutions of compounds to be tested (10 mM), NADPH solutions (8 mM, which was 4 times the final concentration), positive compound stock solutions, substrate stock solutions and human liver microsome solutions (see the table below);
(§4) 3. preparing solutions of compounds to be tested: dissolving 8 μL of 10 mM stock solution of compounds to be tested in 12 μL of acetonitrile, and then using a mixed solution of 40% DMSO and 60% acetonitrile to perform a 1:3 gradient dilution as follows (wherein the concentration was 400 times the final concentration): 4 mM, 1.333 mM, 0.444 mM, 0.148 mM, 0.0494 mM, 0.0165 mM, 0.00549 mM and 0 mM.
(§5) 4. preparing positive control inhibitor solutions: dissolving 8 μL of positive control inhibitor stock solutions in 12 μL of acetonitrile, and then using a mixed solution of 40% DMSO and 60% acetonitrile to perform a 1:3 gradient dilution as follows (wherein the concentration was 400 times the final concentration, which was described in the table below); […]

CYP3A4 = CYP3A4 (Homo sapiens, UniProt P08684); experiment: Inhibition of metabolic enzymes in vitro, human liver microsomes, CYP3A4
Experimental: as §1, §2, §3
4. preparing positive control inhibitor solutions: dissolving 8 μL of positive control inhibitor stock solutions in 12 μL of acetonitrile, and then using a mixed solution of 40% DMSO and 60% acetonitrile to perform a 1:3 gradient dilution as follows (wherein the concentration was 400 times the final concentration, which was described in the table below);
6. preparing mixed solutions of positive control compounds and human liver microsomes: adding 200 μL of 0.2 mg/mL human liver microsomes to a 96-well plate, and adding 1 μL of diluted solutions of positive control compounds;
7. dispensing 30 μL of mixed solutions of the compounds and human liver microsomes to a 96-well plate, and then adding […] substrate solutions: adding […] preheated NADPH solutions to a preheated reaction plate and mixing evenly to start the reaction;
8. incubating the reaction plate at 37° C.; 3A4 was reacted for 5 minutes; 1A2, 2C9 and 2D6 were reacted for 10 minutes; 2C19 was reacted for 45 minutes;
9, after completion of the addition, adding 120 μL of acetonitrile containing internal standard to terminate the reaction: after terminating the reaction, shaking the sample on a shaker at 600 rpm/min for 10 minutes and centrifuging same at 3220×g for 15 minutes; after centrifugation, taking out 50 μL of supernatant and mixing same with 50 μL of water for analysis by LC-MS/MS.
According to the following equation, the data was plotted and fitted using a dose-response model in GraphPad Prism software to calculate IC50.
Y=Bottom+(Top−Bottom)/(1+10^((Log IC50−X)×HillSlope))
X represents the logarithm concentration of the inhibitor, and Y represents the relative activity of the enzyme at a certain inhibitor concentration (relative to the condition without inhibitor).

CYP2C9 = molecular target: T1, CYP2C9 (Homo sapiens, UniProt P11712); experiment: Inhibition of metabolic enzymes in vitro, human liver microsomes, CYP2C9; assay type: in vitro ADME; details: substrate Diclofenac
T1 construct: human liver microsomes and CYP enzyme-specific substrates were used; from tissue; host or cells: human liver microsomes
Experimental: as §1, §2, §3, §4, §5

CYP1A2 = molecular target: T2, CYP1A2 (Homo sapiens, UniProt P05177); experiment: Inhibition of metabolic enzymes in vitro, human liver microsomes, CYP1A2; assay type: in vitro ADME; details: substrate Phenacetin
T2 construct: human liver microsomes and CYP enzyme-specific substrates were used; from tissue; host or cells: human liver microsomes
T2 sequence (P05177 1-516): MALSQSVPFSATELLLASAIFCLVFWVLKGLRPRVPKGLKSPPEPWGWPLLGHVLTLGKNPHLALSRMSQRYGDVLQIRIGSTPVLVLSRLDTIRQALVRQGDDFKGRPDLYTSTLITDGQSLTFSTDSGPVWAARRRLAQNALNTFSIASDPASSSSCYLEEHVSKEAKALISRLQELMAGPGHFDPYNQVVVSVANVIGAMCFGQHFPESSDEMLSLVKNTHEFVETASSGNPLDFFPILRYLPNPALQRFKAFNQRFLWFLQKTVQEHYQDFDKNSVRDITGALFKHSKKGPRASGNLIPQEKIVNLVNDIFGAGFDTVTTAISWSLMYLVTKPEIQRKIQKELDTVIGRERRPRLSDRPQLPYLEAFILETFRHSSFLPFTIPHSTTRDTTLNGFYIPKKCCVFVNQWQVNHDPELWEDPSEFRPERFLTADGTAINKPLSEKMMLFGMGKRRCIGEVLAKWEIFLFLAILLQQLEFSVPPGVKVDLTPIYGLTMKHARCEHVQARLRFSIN
Experimental: as §1, §2, §3, §4, §5

CYP2C19 = molecular target: T3, CYP2C19 (Homo sapiens, UniProt P33261); experiment: Inhibition of metabolic enzymes in vitro, human liver microsomes, CYP2C19; assay type: in vitro ADME; details: substrate S-Mephenytoin
T3 construct: human liver microsomes and CYP enzyme-specific substrates were used; from tissue; host or cells: human liver microsomes
Experimental: as §1, §2, §3, §4, §5

[1] = IC50 (μM) CYP3A4 (Midazolam), substrate Midazolam
[2] = IC50 (μM) CYP3A4 (Testosterone), substrate Testosterone

CYP3A4, sequence (P08684 whole entry): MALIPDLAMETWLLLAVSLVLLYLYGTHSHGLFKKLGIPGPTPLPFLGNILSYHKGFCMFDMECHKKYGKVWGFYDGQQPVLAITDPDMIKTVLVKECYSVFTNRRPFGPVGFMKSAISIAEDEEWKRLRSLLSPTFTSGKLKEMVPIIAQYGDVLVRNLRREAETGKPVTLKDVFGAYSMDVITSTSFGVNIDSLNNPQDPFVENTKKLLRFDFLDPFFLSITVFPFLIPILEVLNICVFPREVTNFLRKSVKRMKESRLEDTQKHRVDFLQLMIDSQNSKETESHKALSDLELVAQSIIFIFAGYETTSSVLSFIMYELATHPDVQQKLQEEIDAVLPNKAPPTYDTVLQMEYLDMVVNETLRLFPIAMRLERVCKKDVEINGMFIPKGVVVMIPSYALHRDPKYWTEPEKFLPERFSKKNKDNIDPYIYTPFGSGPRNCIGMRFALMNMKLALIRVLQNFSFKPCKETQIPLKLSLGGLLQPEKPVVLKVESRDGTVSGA
T3 sequence (P33261 whole entry): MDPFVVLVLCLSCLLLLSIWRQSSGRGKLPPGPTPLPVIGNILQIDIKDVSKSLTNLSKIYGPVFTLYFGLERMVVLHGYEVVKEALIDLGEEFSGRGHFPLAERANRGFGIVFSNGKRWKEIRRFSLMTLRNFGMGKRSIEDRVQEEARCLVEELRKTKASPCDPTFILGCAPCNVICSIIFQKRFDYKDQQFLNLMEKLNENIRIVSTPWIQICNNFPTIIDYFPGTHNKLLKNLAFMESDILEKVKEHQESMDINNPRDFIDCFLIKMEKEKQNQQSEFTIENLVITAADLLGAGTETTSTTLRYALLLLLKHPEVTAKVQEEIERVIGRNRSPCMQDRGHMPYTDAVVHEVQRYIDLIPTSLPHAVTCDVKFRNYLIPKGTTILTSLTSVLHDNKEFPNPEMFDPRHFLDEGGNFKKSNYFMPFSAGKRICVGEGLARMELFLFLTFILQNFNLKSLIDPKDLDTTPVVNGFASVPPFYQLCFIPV
CYP2D6, sequence (P10635 whole entry): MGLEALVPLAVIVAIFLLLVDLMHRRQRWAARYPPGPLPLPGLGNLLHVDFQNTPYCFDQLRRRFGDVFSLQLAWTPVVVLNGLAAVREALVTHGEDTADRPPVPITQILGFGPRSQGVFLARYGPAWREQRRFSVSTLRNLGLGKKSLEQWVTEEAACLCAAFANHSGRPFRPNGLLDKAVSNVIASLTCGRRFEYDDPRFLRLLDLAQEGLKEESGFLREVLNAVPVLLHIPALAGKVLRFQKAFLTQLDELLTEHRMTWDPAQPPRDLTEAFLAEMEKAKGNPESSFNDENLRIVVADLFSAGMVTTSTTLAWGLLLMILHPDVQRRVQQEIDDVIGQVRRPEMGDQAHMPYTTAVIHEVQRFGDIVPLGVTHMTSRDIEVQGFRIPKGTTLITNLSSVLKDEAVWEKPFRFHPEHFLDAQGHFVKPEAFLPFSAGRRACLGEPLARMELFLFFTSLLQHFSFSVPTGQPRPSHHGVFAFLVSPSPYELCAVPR
T1 sequence (P11712 whole entry): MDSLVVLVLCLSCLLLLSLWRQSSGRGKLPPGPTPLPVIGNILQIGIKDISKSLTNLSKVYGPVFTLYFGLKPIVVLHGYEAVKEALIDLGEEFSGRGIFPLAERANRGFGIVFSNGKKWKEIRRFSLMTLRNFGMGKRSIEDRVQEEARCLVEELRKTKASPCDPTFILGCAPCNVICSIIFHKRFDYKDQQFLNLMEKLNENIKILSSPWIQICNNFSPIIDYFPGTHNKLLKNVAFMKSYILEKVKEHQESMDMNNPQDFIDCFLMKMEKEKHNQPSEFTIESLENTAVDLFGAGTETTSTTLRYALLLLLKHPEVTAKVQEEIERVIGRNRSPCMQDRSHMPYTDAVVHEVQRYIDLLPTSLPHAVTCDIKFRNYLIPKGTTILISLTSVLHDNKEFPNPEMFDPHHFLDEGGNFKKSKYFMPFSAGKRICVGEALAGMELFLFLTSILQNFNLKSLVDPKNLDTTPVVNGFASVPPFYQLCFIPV

Q: For `C=CC(=O)N1CCN(c2nc(=O)n(-c3c(C)ccnc3C(C)C)c3nc(-c4c(O)cccc4F)c(F)cc23)[C@@H](C)C1` (atropisomer, axis not shown) [AMG-510], which IC50 (CYP2D6) is on record?
A: Its IC50 is greater than 10 µM.

Q: What about the IC50 (CYP3A4; [1]) of the same molecule?
A: Its IC50 is 4.46 µM.

Q: What about the IC50 (CYP3A4; [2]) of the same molecule?
A: The IC50 was greater than 10 µM.

Q: And the IC50 (CYP2C9)?
A: The IC50 was greater than 10 µM.

Q: What about the IC50 (CYP1A2) of the same molecule?
A: Its IC50 is greater than 10 µM.

Q: And the IC50 (CYP2C19)?
A: Its IC50 is greater than 10 µM.

Q: Which results are given for `C=C(F)C(=O)N1CCN(c2nc(OC[C@@H]3CCCN3C)nc3c2CCN(c2cccc4cccc(Cl)c24)C3)C[C@@H]1CC#N` [MRTX849]?
A: IC50 (CYP2D6): > 10 µM; IC50 (CYP3A4; [1]): 5.92 µM; IC50 (CYP3A4; [2]): 7.85 µM; IC50 (CYP2C9): 2.29 µM; IC50 (CYP1A2): > 10 µM; IC50 (CYP2C19): > 10 µM
